Assay results from ChEMBL document CHEMBL1151559, “Pyridine and piperidine derivatives as inhibitors of dihydrodipicolinic acid synthase, a key enzyme in the diaminopimelate pathway to l-lysine” (Bioorg Med Chem Lett, 1994).
Values joined by “and” are separate entries in the source; they are usually repeats but may differ in a detail not shown here. Equal entries are not always repeated.

How the values were obtained:
[1] = molecular target: T1, Dihydrodipicolinate synthase (Streptomyces coelicolor (strain ATCC BAA-471 / A3(2) / M145), UniProt Q93RY0); experiment: In vitro inhibition of dihydrodipicolinic acid synthase.; type: functional, Escherichia coli
T1 sequence (Q93RY0 whole entry): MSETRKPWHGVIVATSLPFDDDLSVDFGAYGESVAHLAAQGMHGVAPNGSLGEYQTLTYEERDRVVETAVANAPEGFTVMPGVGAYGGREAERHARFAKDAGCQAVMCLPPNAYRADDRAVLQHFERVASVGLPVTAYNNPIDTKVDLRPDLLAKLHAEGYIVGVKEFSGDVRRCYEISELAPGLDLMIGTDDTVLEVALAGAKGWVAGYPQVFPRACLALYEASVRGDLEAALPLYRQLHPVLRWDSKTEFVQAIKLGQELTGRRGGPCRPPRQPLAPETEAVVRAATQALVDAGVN

[2] = molecular target: T1, Dihydrodipicolinate synthase (Streptomyces coelicolor (strain ATCC BAA-471 / A3(2) / M145), UniProt Q93RY0); experiment: Inhibitory activity against dihydrodipicolinic acid synthase; type: functional, Escherichia coli

| SMILES | IC50 [1] | Ki [2] |
| --- | --- | --- |
| O=C(O)c1cccc(C(=O)O)[n+]1[O-] | 200 µM |  |
| COC(=N)c1cccc(C(=N)OC)n1 | 200 µM |  |
| c1cc(-c2nnn[nH]2)nc(-c2nnn[nH]2)c1 | 250 µM |  |
| COC(=O)[C@@H]1CCC[C@H](C(=O)OC)N1 | 700 µM |  |
| COC(=O)[C@@H]1CCC[C@@H](C(=O)OC)N1 | 5200 µM |  |
| N#Cc1cccc(C#N)n1 | 300 µM |  |
| N#C[C@@H]1CCC[C@@H](C#N)N1 |  | 6300 µM |
| COC(=O)c1cccc(C(=O)OC)n1 | 700 µM |  |
| O=C(O)c1cccc[n+]1[O-] | 800 µM |  |
| O=NN1[C@@H](C(=O)O)CCC[C@H]1C(=O)O | 2300 µM |  |
| N=C[C@@H]1CCC[C@H](C=N)N1 | 7200 µM |  |
| N#C[C@@H]1CCC[C@H](C#N)N1 | 7400 µM |  |
| COC(=O)[C@@H]1CCC[C@@H](C(=O)OC)N1C | 700 µM |  |
| O=NN1CCCCC1C(=O)O (stereo not drawn) | 3500 µM |  |
| O=NN1CCCC1C(=O)O (stereo not drawn) | 7500 µM |  |
| COC(=O)[C@H]1CCC[C@@H](C(=O)OC)N1N=O | 6200 µM and 700 µM |  |
| O=C(O)c1ccccn1 [2-PICOLINIC ACID] | 1000 µM |  |
| O=C(O)c1cccc(C(=O)O)n1 [DIPICOLINIC ACID] | 400 µM |  |
